Data: US11471448B2 (priority 2020, dated 2022)
Structures can show the parent of a compound that is named as a salt.

Experiments:
[1] = system: SARS-CoV-2 clinical isolate (2019-nCoV/USA-WA1/2020); assay: Anti-viral activity against SARS-CoV-2 in HBEC air-liquid-interface cultures (apical viral titer by TCID50); format: cell-based
[2] = system: human bronchial epithelial cells (HBEC)
[3] = system: patients with severe COVID-19 pneumonia; assay: Randomized, double-blind, placebo-controlled Phase 2/3 study of opaganib in COVID-19 pneumonia (baseline FiO2 up to 60% subgroup)

O=C(NCc1ccncc1)C12CC3CC(C1)CC(c1ccc(Cl)cc1)(C3)C2 [opaganib, 3-(4-chlorophenyl)-adamantane-1-carboxylic acid (pyridin-4-ylmethyl) amide, hydrochloride salt]
50% inhibition reached in the concentration range tested ([1]; 0.05 to 11.25 μg/ml): neither 50% inhibition nor 50% cytotoxicity were reached
concentration from which complete inhibition of infectious virus production is seen ([1]; SARS-CoV-2-infected HBEC, 3 days incubation): ≥ 1 µg/mL
cell viability [2]: remained viable
50% cytotoxicity reached in the concentration range tested ([2]; human): neither 50% inhibition nor 50% cytotoxicity were reached
overall adverse events vs. placebo group ([3]; 500 mg Q12 hours, 14 days): balanced
patients reaching room air by Day 14 (no supplemental oxygen for at least 24 hours) ([3]; baseline FiO2 up to 60%, 90/117 patients, placebo 85/134 (63.5%)): 77%
efficacy benefit in mortality, Sensitivity Analysis ([3]; baseline FiO2 up to 60%, nominal p-value=0.033): 64%
mortality (deaths/patients), Sensitivity Analysis ([3]; baseline FiO2 up to 60%, placebo 16/134): 5/117
efficacy benefit in reaching room air by Day 14 ([3]; baseline FiO2 up to 60%, vs. placebo, nominal p-value=0.033): 21%
median time to discharge ([3]; baseline FiO2≤60% (251 patients), placebo 14 days): 10 days
Time to a score of <=3 on the WHO Ordinal Scale: Kaplan-Meier Median ([3]; baseline FiO2≤60%, 95% CI (7.00-9.00), placebo 10.00): 8.00 days
Patients With an Improvement of 2 or More on the WHO Ordinal Scale Compared to Baseline by Day 14 ([3]; baseline FiO2≤60%, N = 117): 93 (79.49) n (%)
Time to Discharge by day 42: Number of Events ([3]; baseline FiO2≤60%, N = 117): 81 (69.2) n (%)
Time to a score of <=3 on the WHO Ordinal Scale: Number of Events ([3]; baseline FiO2≤60%, N = 117): 93 (79.5) n (%)
Time to Discharge by day 42: Difference and 95% CI (opaganib vs. placebo) ([3]; baseline FiO2≤60%, p-value 0.0022): −4.48 (−7.34, −1.62) days
Difference in Rates (Opaganib-Placebo), improvement of 2 or more on the WHO Ordinal Scale by Day 14 ([3]; baseline FiO2≤60%, p-value 0.023): 13.82%
Time to Discharge by day 42: Kaplan-Meier Mean (Restricted Mean Analysis) ([3]; baseline FiO2≤60%, placebo 17.89): 13.41 days
mortality (deaths/patients) ([3]; mITT with baseline FiO2 up to 60%, through Day 42, placebo 21/134): 7/117
reduction in mortality ([3]; mITT with baseline FiO2 up to 60%, vs. placebo, nominal p-value=0.019): 62%
